Experimental data: publication PMC4413647, “Simultaneous targeting of androgen receptor (AR) and MAPK-interacting kinases (MNKs) by novel retinamides inhibits growth of human prostate cancer cell lines” (Oncotarget, 2014)
Like-named read-outs stand apart in the source and are kept apart here.

Tests used:
Type in all cases: cell-based, human
fAR, MNK1, MNK2, peIF4E = experiment: Western blot of fAR, MNK1, MNK2, peIF4E in VNLG-152 treated LNCaP cells
Method: Figure 6 Effect of siAR, siMNK1 on LNCaP cell viability, and VNLG-152 on key and downstream proteins in LNCaP cells (A) Western blot analysis of the expression of fAR, MNK1 and peIF4E in LNCaP cells transfected with 100 nM of siAR, siMNK1 and combinations for 18 h. (B) Effect of VNLG-152 (5 μmol) on cell proliferation in LNCaP cells transfected with siAR, siMNK1 and combinations as determined by MTT assay. The results represent the mean ± SEM of three independent experiments and are represented as a bar graph after normalizing to control cells. *, P< 0.05; ♣, P<0.01 compared with vehicle treated control. (C) Dose-dependent effect of VNLG-152 on the expression of AR, MNKs, peIF4E and downstream target proteins. Total cell lysate from LNCaP cells treated with VNLG-152 (0 - 20 μmol/L) for 24 h were separated by SDS-PAGE and probed with corresponding antibodies. Vehicle treated cells were included as control and all blots were reprobed for β-actin to ensure equal protein loading.
Figure 7 VNLG-152 induced AR degradation by ubiquitin proteasomal pathway in LNCaP cells (A) Western blot analysis of the expression of fAR in LNCaP cells treated with VNLG-152 (20 μmol/L) in the presence or absence of CHX (10 μmol/L) at 6, 12 and 24 h of treatment. (B) Densitometric analysis of the expression of fAR in different groups *, P< 0.05; ♣, P<0.01 compared with vehicle treated control. (C) Western blot analysis of the expression of fAR in LNCaP cells treated with VNLG-152 (20 μmol/L) in the presence or absence of MG-132 (5 μmol/L). (D) LNCaP cells were treated with 20 μmol/L of VNLG-152, 5 μmol/L of MG-132, and combinations for 24 h. AR protein was immunoprecipitated with AR antibody (mouse) and the precipitated protein was subjected to western blot analysis with anti-ubiquitin antibody (Ub) ([…]). The same blot was used to detect AR protein with anti-AR (rabbit) antibody after stripping (C, lower panel). […]

LNCaP cells = experiment: MTT cell proliferation assay, 7 d, LNCaP; conditions: 7 d treatment
Source text: Androgen-dependent (LNCaP), androgen-independent (PC-3) and castration resistant (C4-2B and 22Rv1) human prostate carcinoma cells were procured from American Type Culture Collection, Manassas, VA, USA and maintained in RPMI 1640 media (Gibco-Life Technologies, Grand Island, NY, USA) supplemented with 10% fetal bovine serum and 1% penicillin/streptomycin. […] Immortalized untransformed prostate epithelial cells, PWR1E from American Type Culture Collection were maintained in serum-free Keratinocyte media (Gibco) supplemented with epidermal growth factor and bovine pituitary extract. All cell lines were maintained in a 37 °C/5% CO2 humidified atmosphere.
Cell proliferation assay was performed as described previously. For cell growth experiment, cells were treated with the NRs for 7 days. MTT assay was performed at the end of the experiment. Calculations of combination indices were done using the Calcusyn program (Biosoft, Cambridge, United Kingdom). For colony formation assay, cells were plated 1000 per well in complete media and allowed to adhere for 24 h. The next day cells were treated with indicated compounds (5 μM). After 24 h compound containing media were removed, and cells were allowed to form colonies in complete media. Approximately 2 weeks later the colonies were fixed, stained with 0.5% crystal violet (sigma) for 30 min and counted manually. Results represent the mean ± standard deviation of three independent experiments.

PC-3 cells = experiment: Wound healing migration assay; conditions: 5 μM, 24 h
Method: Figure 5 Anti-migratory and anti-invasive potential of NRs (A) Effect of NRs treatment (5 μmol/L) on PC-3 cell migration was assessed by wound healing assay after 24 h of wound formation. Representative photomicrographs of initial and final wounds are shown at 100x magnification. (B) Effect of NRs on PC-3 cell invasion was evaluated by transwell migration assay. PC-3 cells were seeded on matrigel coated boyden chamber and treated with NRs (5 μmol/L, 24 h). Photographs represent the extent of cell invasion in each of the treated cells. (C) Western blot analysis of the effect of NRs on the expression of cadherins in PC-3 cells. Cells were treated with indicated compound 20 μmol/L for 24 h. […] For wound healing assay highly metastatic PC-3 cells were plated in a 24 well plate at a seeding density of 5 × 10^5 cells/ well and allowed to form a confluent monolayer for 24 h. Cells were made dormant by pretreating with 0.5 μmol/L mitomycin C for 2 h to ensure that wounds are filled due to cell migration and not by cell proliferation. Subsequently, the monolayer was scratched with a pipette tip, washed with media to remove floating cells, and photographed (time 0 h). Cells were then treated with indicated compounds (5 μM) and the experiment was terminated as soon as wound was completely filled in vehicle treated controls. Cells were then photographed again using Nikon TE2000 microscope at three randomly selected sites per well [43].

## CC1=C(/C=C/C(C)=C/C=C/C(C)=C/C(=O)Nc2ccc(F)cc2)C(C)(C)CCC1n1ccnc1 (racemic) [VNLG-152]
fAR, MNK1, MNK2, peIF4E; 20 μmol/L
  time by which AR and MNK (MNK1 and MNK2) were profoundly reduced: ≤ 12 h
fAR, MNK1, MNK2, peIF4E; 0.6-20 μM, 24 h
  concentration of maximal effect on MNK2 expression: 20 µM
  concentration with notable decrease in expression of fAR, MNK1 and peIF4E: ≥ 2.5 µM
LNCaP cells; read-out: GI50 LNCaP
  GI50: 2.45 µM
LNCaP cells; Homo sapiens, LNCaP, 168 h, read-out: GI50 LNCaP
  GI50: 2.5 µM
LNCaP cells; Homo sapiens, LNCaP, 168 h, DHT induced, read-out: GI50 LNCaP, DHT induced
  GI50: 1.86 µM
PC-3 cells
  PC-3 cell migration to the denuded zone: potentially suppressed
